{
  "source": "patent US5756109A",
  "about": "“Skin care compositions containing geranyl geraniol and retinol or retinyl esters” (Chesebrough-Pond's USA Co., Division of Conopco, Inc., priority 1996, dated 1998)",
  "key": {"[1]": {"test_system": "retinol esterification", "test": "In vitro microsomal esterification of retinol, ARAT and LRAT together (statements in words)", "assay_type": "biochemical, bovine", "conditions": "compared with farnesol", "description": "(§1) Microsomes are obtained as described in: J. C."}, "[2]": {"test_system": "ARAT", "test": "In vitro microsomal esterification of retinol, ARAT (retinyl palmitate formation)", "assay_type": "biochemical, bovine", "conditions": "10 micromolar retinol, 1 hour, 37° C.", "description": "It is believed that the use of retinol or esters of retinol would be preferred over retinoic acid. Retinol is an endogenous compound which occurs naturally in the human body and is essential for normal epithelial cell differentiation. Retinol is also considered much safer than retinoic acid. Esters of retinol hydrolyze in-vivo to produce retinol. […] These esterification reactions are very efficient in keratinocytes--the majority (95%) of cellular retinoids are in the form of retinyl fatty esters.\nas §1"}, "[3]": {"test_system": "Human keratinocytes", "test": "3H-thymidine incorporation, keratinocyte proliferation (Example 3)", "assay_type": "cell-based", "conditions": "for activity at […]: Homo sapiens, Keratinocyte, 250 nM, read-out: % Control (thymidine incorporation)", "description": "(§2) Human keratinocytes, isolated from neonatal foreskin by trypsin treatment were grown in Dulbecco Modification Eagle (DME) Hams F12 (1:1) medium/10% fetal calf serum in the presence of irradiated 3T3 mouse fibroblasts for establishing dividing keratinocyte colonies. Cells were grown under the above condition until their second passage and kept frozen for future use. Frozen second passage keratinocytes were thawed and plated into the above medium and grown for five days before they were switched to a serum-free MCDB 153-based medium keratinocyte growth medium (KGM) from Clonetics Corporation, San Diego, Calif., containing 0.15 mM Ca, or keratinocyte serum-free media (KSFM) from GIBCO containing 0.09 mM Ca). On day 7, when the cells were 80-90% confluent, they were trypsinized and plated in the serum-free medium for the various experiments.\nThe incorporation of ^3 H-thymidine by cultured keratinocytes was used as an assay of keratinocyte proliferation. Thymidine is one of four deoxynucleosides which are the monomeric units of DNA, the universal library of genetic information in the animal kingdom. Prior to cell division of a somatic cell such as a keratinocyte, the complete genome of the cell undergoing cell division is replicated. This involves large scale DNA synthesis by the cell and enables both daughter cells to receive identical copies of the genetic material. When 3H-thymidine is included in the culture media of keratinocytes which are synthesizing DNA in preparation for cell division then the labelled nucleoside is incorporated into the newly synthesized DNA. The extent of incorporation of ^3 H-thymidine into a population of cells is proportional to the rate of DNA synthesis by this population of cells and therefore an indication of their cellular proliferation.\nFor Example 3, the following procedure was employed to measure thymidine incorporation:\nHuman keratinocytes were plated in 24-well plates at a density of 40,000 cells/well in 1 ml keratinocyte growth media. The cells were allowed to grow until they were 60-70% confluent (approx. 4 days), after which they were treated (in triplicate) with test agents in media for 4 hours. Tritiated thymidine (1 microcurie/ml) was then added, and the cells were incubated for an additional 18 hrs. The medium was removed and the cells were incubated for 30 minutes with ice cold 10% trichloroccetic acid. The cells were then washed 5× with 5% TCA and dissolved in 0.5 ml 0.1M NaOH. After neutralization with 0.1M HCl, aliquots were removed to measure protein and radioactivity by liquid scintillation counting.\n^3 H-Thymidine incorporation was measured according to the procedure described in Materials and Methods section above."}, "[4]": {"test_system": "Human keratinocytes", "test": "3H-thymidine incorporation, keratinocyte proliferation (Example 1)", "assay_type": "cell-based", "conditions": "[…]10^-7, […]10^-8 and […]10^-9 M; over ethanol control and retinol treatments", "description": "as §2\nThe incorporation of ^3 H-thymidine by cultured keratinocytes was used as an assay of keratinocyte proliferation. […]\nKeratinocytes (that were cultured as described above) were plated in 24 well plates at a density of about 20,000 cells per well in 1 ml media. […] Disintegrations per minute (DPM) from ^3 H labelling of DNA was determined by liquid scintillation counting of 900 μl of the cell preparation. Thymidine incorporation results were expressed as DPM/μg protein."}, "[5]": {"test_system": "TGase I", "test": "Transglutaminase (TGase I) ELISA normalized to DNA, keratinocyte differentiation (Example 1)", "assay_type": "cell-based, human", "conditions": "[…]10^-7, […]10^-8 and […]10^-9 M", "description": "as §2\nDuring the process of terminal differentiation in the epidermis, a 15 nm thick layer of protein, known as the cornified envelope (CE) is formed on the inner surface of the cell periphery. The CE is composed of numerous distinct proteins which have been cross-linked together by the formation of N^E -(γ-glutamyl) lysine isodipeptide bonds catalyzed by the action of at least two different transglutaminases (TGases) expressed in the epidermis. TGase I is expressed in abundance in the differentiated layers of the epidermis, especially the granular layer, but is absent in the undifferentiated basal epidermis. […]\nKeratinocytes (cultured as described above) were plated in 96 well plates at a density of 3,000 cells per well in 200 μl media. […] The absorbance of samples was read at 492 nm in the plate reader. […] TGase levels were determined by subtracting background from the readings from each treatment and determining mean±s.d. for the replicates exposed to both Ab.\nThe level of TGase-1 detected after treatment of the cells could be influenced by cell number, i.e., the greater the number of cells the greater the level of TGase-1 detected. […]"}},
  "note": "“Also recorded” adds a separate entry of the source. Like-named read-outs stand apart in the source and are kept apart here.",
  "data": [
    {"smiles": "CC(C)=CCC/C(C)=C/CC/C(C)=C/CC/C(C)=C/CO", "note": "[Geranyl Geraniol, geranyl geraniol]", "values": [
      {"measurement": "inhibition of retinol esterification (in words)", "setting": "[1]", "result": "substantially more potent esterification inhibitor, than farnesol; also recorded: substantially more potent at inhibiting retinol esterification than other terpenes, e.g., farnesol"},
      {"measurement": "% INHIB. ARAT", "setting": "[2]; 10 μM", "result": 38, "unit": "%"},
      {"measurement": "% INHIB. ARAT", "setting": "[2]; 100 μM", "result": 81, "unit": "%"},
      {"measurement": "proliferation enhancing effect of retinol (in words)", "setting": "[3]; 10 nM geranyl geraniol with 250 nM retinol, compared with retinoic acid", "result": "significantly increase the proliferation enhancing effect of retinol to a level similar to that which can be achieved with a comparable amount of retinoic acid"}
    ]},
    {"smiles": "CC(C)=CCCC(C)=CCCC(C)=CCO", "note": "[Farnesol, farnesol]", "values": [
      {"measurement": "% INHIB. ARAT", "setting": "[2]; 10 μM", "result": 20, "unit": "%"},
      {"measurement": "% INHIB. ARAT", "setting": "[2]; 100 μM", "result": 43, "unit": "%"}
    ]},
    {"smiles": "CC1=C(/C=C/C(C)=C/C=C/C(C)=C/C(=O)O)C(C)(C)CCC1", "note": "[RA, Retinoic Acid]", "values": [
      {"measurement": "keratinocyte proliferation (in words)", "setting": "[4]", "result": "significantly increased keratinocyte proliferation"},
      {"measurement": "decrease in transglutaminase level (in words)", "setting": "[5]", "result": "dose dependent"},
      {"measurement": "keratinocyte differentiation (in words)", "setting": "[5]; over ethanol control and corresponding retinol treatments", "result": "decreased keratinocyte differentiation"},
      {"measurement": "activity at […]", "setting": "[3]; Experiment #1", "result": 156, "unit": "%"},
      {"measurement": "activity at […]", "setting": "[3]; Experiment #2", "result": 163, "unit": "%"}
    ]},
    {"smiles": "CC1=C(/C=C/C(C)=C/C=C/C(C)=C/CO)C(C)(C)CCC1", "note": "[ROH, Retinol]", "values": [
      {"measurement": "decrease in transglutaminase level (in words)", "setting": "[5]", "result": "dose dependent"},
      {"measurement": "activity at […]", "setting": "[3]; Experiment #1", "result": 108, "unit": "%"},
      {"measurement": "activity at […]", "setting": "[3]; Experiment #2", "result": 107, "unit": "%"}
    ]}
  ]
}
